Test results from the supplement of paper PMC10307832.

Experiments:
Test in all cases: relative viability (nuclei count vs DMSO), 5 days (fraction); higher = more cells survive
[1] = compound: C=CCc1cccc(/C=N/NC(=O)CN2CCN(Cc3ccccc3)CC2)c1O [PAC-1]
Method in brief: (§1)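 Nuclei counted with MetaXpress define viability as the ratio of treated to vehicle wells, given as a median across plates. The lung cancer cell lines were in 1536-well plates, pinned with five √10-spaced library-drug doses and imaged at 4× after 5 days and Hoechst staining. Plates passed with control CV below 25% and at least one doubling.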

[2] = compound: C=CC(=O)N1CCC[C@@H](n2nc(-c3ccc(Oc4ccccc4)cc3)c3c(N)ncnc32)C1 [Ibrutinib]
Method in brief: as §1

[3] = compound: C=CC(=O)Nc1cc(-n2c(=O)ccc3cnc4ccc(-c5ccc(NS(C)(=O)=O)cc5)cc4c32)ccc1C [BMX-IN-1]
Method in brief: as §1

[4] = compound: C=CC(=O)N1CCC[C@@H](n2nc(-c3ccc(Oc4ccccc4)cc3)c3c(N)ncnc32)C1 [Ibrutinib] + CC(=O)Nc1cccc(-n2c(=O)n(C3CC3)c(=O)c3c(Nc4ccc(I)cc4F)n(C)c(=O)c(C)c32)c1 [Trametinib] (partner 0.02 µM)
Method in brief: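 Lung cancer cell lines, seeded in 1536-well plates, were treated the following day by pin tool with a single drug or with five library-drug doses (not always all listed) in √10 steps on top of a fixed anchor-drug dose. Cells were fixed and nuclei stained in one step after 5 days, and nuclei were counted. Relative viability is the nuclei count for treated wells divided by that for vehicle wells, reported as medians of duplicate plates.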

For SK-MES-1, the relative viability ([1]; 0.02 µM) was 0.974, the relative viability ([1]; 0.06325 µM) was 0.987 and the relative viability ([1]; 0.2 µM) was 0.94. The relative viability ([1]; 2 µM) was 1.02, the relative viability ([2]; 0.01581 µM) was 0.989 and the relative viability ([2]; 0.05 µM) was 0.888. The relative viability ([2]; 0.1581 µM) was 1.02, the relative viability ([2]; 0.5 µM) was 0.543 and the relative viability ([3]; 0.02 µM) was 1.1. For the same cell line, the relative viability ([3]; 0.2 µM) was 1.1, the relative viability ([3]; 0.6325 µM) was 1.11 and the relative viability ([3]; 2 µM) was 0.998. It also gave a relative viability ([4]; first compound 0.005 µM) of 0.591, a relative viability ([4]; first compound 0.01581 µM) of 0.467 and a relative viability ([4]; first compound 0.05 µM) of 0.36. For the same cell line, the relative viability ([4]; first compound 0.1581 µM) was 0.611 and the relative viability ([4]; first compound 0.5 µM) was 0.297.
